Melting point data for 46 compounds are collected here from a melting point compilation (Tetko et al.).

By melting point is commonly meant the temperature, or range, at which the solid turns liquid. As to `Nc1nccnc1C(=O)O`, the melting point fell in the range of 201 to 205 °C.

With `C#CCl`, the melting point was -126 °C.

`CCCCCCC(O)CCC` (stereo unspecified): the melting point is -11 °C.

With `CCOC(=O)C1=NN(c2ccc(Cl)cc2Cl)C(=O)C1C(Cl)C1(Cl)C(=O)N(c2ccc(Cl)cc2Cl)N=C1C(=O)OCC` (stereo unspecified), the melting point worked out at 99 °C.

Compound `COc1ccc2c(=O)c3ccccc3oc2c1CN1CCCCC1` showed a melting point of 160 °C.

`Cc1cc(Br)cnc1N`: the melting point was 92 to 94 °C.

In turn, `O=C(NCOC(=O)c1ccc(O)cc1)c1ccccc1` yielded a melting point of 165 to 166 °C.

On to `COC1(C=O)C=CC2=C(C1)OCO2` (stereo unspecified), for which the melting point was found to be 129 °C.

`CCOC(=O)C1=C(NC(=O)c2ccco2)Oc2c(c(=O)oc3ccccc23)C1c1ccc(Br)cc1` (stereo unspecified) came in with a melting point of 140 °C.

On to `Cc1ncc(CO)c(CO)c1O`, for which the melting point was 160 °C.

Compound `Nc1ccc(S(=O)(=O)N2CCOCC2)cc1` yielded a melting point of 216 to 218 °C.

`Cc1cc(=O)oc2[nH]nc(C)c12` showed a melting point of 251 to 252 °C.

Take `CCSCC[C@@H](N)C(=O)O`: the melting point was found to be 278 °C.

Consider `CCOC(=O)c1cc(-c2cccs2)nn1C`, for which the melting point is 72 to 73 °C.

`COC(=O)c1c(C)[nH]c(C)c1C=O`: the melting point is 160 °C.

Turning to `CC(C)CN1C(=O)N2CCc3ccccc3C2(c2ccc(Cl)cc2)C1=O` (stereo unspecified), the melting point is 120 to 121 °C.

As to `CCCCOCCOCCOCCCC`, the melting point was -60 °C.

On to `c1cncc(Cn2cccc2)c1`, for which the melting point lay within 59 to 64 °C.

Regarding `O=[N+]([O-])c1ccccc1Nc1ccccc1`, the melting point turned out to be 75 °C.

Take `N#Cc1ccc(Cn2cncn2)cc1`: the melting point lay within 69 to 72 °C.

`O=C(N=NC(=O)OCc1ccccc1)OCc1ccccc1` registered a melting point of 44 to 52 °C.

The compound `CC1=CC2OC3C(O)CC(C)(C34CO4)C2(CO)C(O)C1=O` (stereo unspecified) gave a melting point of 152 °C.

As to `Oc1ccccc1N1CCCCC1`, the melting point was 75 °C.

Compound `CCNC(N)=O` showed a melting point of 92.5 °C.

Consider `Cn1cnc2[nH]c(N)nc(=O)c21`, for which the melting point amounted to 370 °C.

`Cc1cc(N)cc(C)n1` showed a melting point of 192 °C.

`Brc1cc(Br)c(Oc2c(Br)cc(Br)c(Br)c2Br)c(Br)c1Br` displayed a melting point of 206 °C.

`CCCCCCC#CC(=O)O` came in with a melting point of -8 °C.

Compound `Nc1ncc(Br)cc1Br` displayed a melting point of 104 °C.

Consider `O=C(O)c1ccc(-n2ccnc2)cc1`, for which the melting point was in the range of 309 to 311 °C.

`NC(Cc1ccc(F)cc1Cl)=NO` showed a melting point of 146 to 147 °C.

The compound `CN=C(N)c1cc(C(C)(C)C)c(O)c(C(C)(C)C)c1` had a melting point of 280 to 281 °C.

With `C=CC(C)Cl` (stereo unspecified), the melting point was -50 °C.

Consider `O=C1NCC(CCl)O1` (stereo unspecified), for which the melting point was in the range of 101 to 105 °C.

`Cc1ccc(C(=O)C2=NN(c3ccccc3)C3C(=O)N(c4cccc([N+](=O)[O-])c4)C(=O)C23)cc1` (stereo unspecified) had a melting point of 176 °C.

For `CCCCCCCC/C=C\CCCCCCCC#N`, the melting point was -1 °C.

Compound `N#CC(=Cc1ccccc1Cl)c1nc2ccccc2s1` had a melting point of 139 °C.

On to `CC(C)N(C(=O)CCl)c1ccccc1`, for which the melting point was found to be 77 °C.

As to `Cc1cc2c(o1)-c1c(oc3c(I)cc(I)cc13)CCC2(C)c1ccccc1` (stereo unspecified), the melting point was 175 °C.

Consider `O=C(Oc1c(-c2ccccc2)[nH]c2cc([N+](=O)[O-])ccc12)c1ccccc1`, for which the melting point came out at 229 °C.

Turning to `C/C(=N\O)c1ccc2c(c1)CCCC2`, the melting point lay in the range of 104 to 106 °C.

Turning to `CCCOCOCCC`, the melting point was -97.3 °C.

For the compound `ON=Cc1c[nH]cn1`, the melting point stood at 182 °C.

As for `O=[N+]([O-])c1c(N2CCCCC2)cc(Cl)c2nonc12`, the melting point was in the range of 159 to 161 °C.

The compound `O=C(O)C=Cc1ccsc1` had a melting point of 155 to 156 °C.

For the compound `O=Cc1cccc2cc[nH]c12`, the melting point was found to be 88 °C.
